According to patent US8802597B2, “Herbicidal pyrimidines” (E I du Pont de Nemours and Company, priority 2003, dated 2014):

Experiments:
Test in all cases: Test G pre/postemergence
Type in all cases: in vivo
Conditions in all cases: Preemergence
[1] = tested on: common chickweed (Stellaria media)
Description: (§1) Seeds or nutlets of plant species selected from bermudagrass (Cynodon dactylon), Surinam grass (Brachiaria decumbens), large crabgrass (Digitaria sanguinalis), green foxtail (Setaria viridis), goosegrass (Eleusine indica), johnsongrass (Sorghum halepense), kochia (Kochia scoparia), pitted morningglory (Ipomoea lacunosa), purple nutsedge (Cyperus rotundus), common ragweed (Ambrosia elatior), black mustard (Brassica nigra), guineagrass (Panicum maximum), dallisgrass (Paspalum dilatatum), barnyardgrass (Echinochloa crus-galli), southern sandbur (Cenchrus echinatus), common sowthistle (Sonchus oleraceous), prickly sida (Sida spinosa), Italian ryegrass (Lolium multiflorum), common purslane (Portulaca oleracea), broadleaf signalgrass (Brachiaria platyphylla), common groundsel (Senecio vulgaris), common chickweed (Stellaria media), tropical spiderwort (Commelina benghalensis), annual bluegrass (Poa annua), downy bromegrass (Bromus tectorum), itchgrass (Rottboellia cochinchinensis), quackgrass (Elytrigia repens), Canada horseweed (Conyza canadensis), field bindweed (Convolvulus arvensis), spanishneedles (Bidens bipinnata), common mallow (Malva sylvestris), and Russian thistle (Salsola kali) were planted and treated preemergence with test chemicals formulated in a non-phytotoxic solvent mixture which included a surfactant.
(§2) At the same time, plants selected from these weed species were treated with postemergence applications of some of the test chemicals formulated in the same manner. Plants ranged in height from 2 to 18 cm (1- to 4-leaf stage) for postemergence treatments. Treated plants and controls were maintained in a greenhouse for 12 to 21 days, after which time all species were compared to controls and visually evaluated.
(§3) Plant response ratings, summarized in Table G, are based on a scale of 0 to 100 where 0 is no effect and 100 is complete control. A dash (-) response means no test result.

[2] = tested on: broadleaf signalgrass (Brachiaria platyphylla)
Description: as §1, §2, §3

[3] = tested on: green foxtail (Setaria viridis)
Description: as §1, §2, §3

[4] = tested on: quackgrass (Elytrigia repens)
Description: as §1, §2, §3

[5] = tested on: southern sandbur (Cenchrus echinatus)
Description: as §1, §2, §3

[6] = tested on: common mallow (Malva sylvestris)
Description: as §1, §2, §3

[7] = tested on: goosegrass (Eleusine indica)
Description: as §1, §2, §3

[8] = tested on: pitted morningglory (Ipomoea lacunosa)
Description: as §1, §2, §3

[9] = tested on: itchgrass (Rottboellia cochinchinensis)
Description: as §1, §2, §3

[10] = tested on: large crabgrass (Digitaria sanguinalis)
Description: as §1, §2, §3

[11] = tested on: common ragweed (Ambrosia elatior)
Description: as §1, §2, §3

[12] = tested on: black mustard (Brassica nigra)
Description: as §1, §2, §3

[13] = tested on: dallisgrass (Paspalum dilatatum)
Description: as §1, §2, §3

[14] = tested on: prickly sida (Sida spinosa)
Description: as §1, §2, §3

COC(=O)c1nc(C2CC2)nc(N)c1Cl [Compound 9, methyl 6-amino-5-chloro-2-cyclopropyl-4-pyrimidinecarboxylate]
Plant response rating, Chickweed ([1]; 125 g ai/ha, scale 0-100): 100 | Plant response rating, Chickweed ([1]; 250 g ai/ha, scale 0-100): 100 | Plant response rating, Chickweed ([1]; 500 g ai/ha, scale 0 to 100): 100 | Plant response rating, Signalgrass ([2]; 62 g ai/ha, scale 0-100): 20 | Plant response rating, Signalgrass ([2]; 125 g ai/ha, scale 0-100): 80 | Plant response rating, Signalgrass ([2]; 250 g ai/ha, scale 0-100): 80 | Plant response rating, Signalgrass ([2]; 500 g ai/ha, scale 0 to 100): 100 | Plant response rating, Foxtail, Green ([3]; 62 g ai/ha, scale 0-100): 20 | Plant response rating, Foxtail, Green ([3]; 125 g ai/ha, scale 0-100): 85 | Plant response rating, Foxtail, Green ([3]; 250 g ai/ha, scale 0-100): 100 | Plant response rating, Foxtail, Green ([3]; 500 g ai/ha, scale 0 to 100): 100 | Plant response rating, Quackgrass ([4]; 62 g ai/ha, scale 0-100): 70 | Plant response rating, Quackgrass ([4]; 250 g ai/ha, scale 0-100): 70 | Plant response rating, Quackgrass ([4]; 500 g ai/ha, scale 0 to 100): 100 | Plant response rating, Sandbur ([5]; 125 g ai/ha, scale 0-100): 80 | Plant response rating, Sandbur ([5]; 250 g ai/ha, scale 0-100): 90 | Plant response rating, Sandbur ([5]; 500 g ai/ha, scale 0 to 100): 95 | Plant response rating, Mallow ([6]; 62 g ai/ha, scale 0-100): 90 | Plant response rating, Mallow ([6]; 125 g ai/ha, scale 0-100): 100 | Plant response rating, Mallow ([6]; 250 g ai/ha, scale 0-100): 100 | Plant response rating, Mallow ([6]; 500 g ai/ha, scale 0 to 100): 100 | Plant response rating, Goosegrass ([7]; 62 g ai/ha, scale 0-100): 10 | Plant response rating, Goosegrass ([7]; 125 g ai/ha, scale 0-100): 60 | Plant response rating, Goosegrass ([7]; 250 g ai/ha, scale 0-100): 95 | Plant response rating, Goosegrass ([7]; 500 g ai/ha, scale 0 to 100): 95 | Plant response rating, Morningglory ([8]; 62 g ai/ha, scale 0-100): 70 | Plant response rating, Morningglory ([8]; 125 g ai/ha, scale 0-100): 100 | Plant response rating, Morningglory ([8]; 250 g ai/ha, scale 0-100): 100 | Plant response rating, Morningglory ([8]; 500 g ai/ha, scale 0 to 100): 100 | Plant response rating, Itchgrass ([9]; 62 g ai/ha, scale 0-100): 30 | Plant response rating, Itchgrass ([9]; 125 g ai/ha, scale 0-100): 60 | Plant response rating, Itchgrass ([9]; 250 g ai/ha, scale 0-100): 80 | Plant response rating, Itchgrass ([9]; 500 g ai/ha, scale 0 to 100): 85 | Plant response rating, Crabgrass, Large ([10]; 62 g ai/ha, scale 0-100): 70 | Plant response rating, Crabgrass, Large ([10]; 125 g ai/ha, scale 0-100): 90 | Plant response rating, Crabgrass, Large ([10]; 250 g ai/ha, scale 0-100): 90 | Plant response rating, Crabgrass, Large ([10]; 500 g ai/ha, scale 0 to 100): 100 | Plant response rating, Ragweed ([11]; 62 g ai/ha, scale 0-100): 95 | Plant response rating, Ragweed ([11]; 125 g ai/ha, scale 0-100): 100 | Plant response rating, Ragweed ([11]; 250 g ai/ha, scale 0-100): 100 | Plant response rating, Ragweed ([11]; 500 g ai/ha, scale 0 to 100): 100 | Plant response rating, Black Mustard ([12]; 62 g ai/ha, scale 0-100): 70 | Plant response rating, Black Mustard ([12]; 125 g ai/ha, scale 0-100): 75 | Plant response rating, Black Mustard ([12]; 250 g ai/ha, scale 0-100): 100 | Plant response rating, Black Mustard ([12]; 500 g ai/ha, scale 0 to 100): 100 | Plant response rating, Dallisgrass ([13]; 62 g ai/ha, scale 0-100): 10 | Plant response rating, Dallisgrass ([13]; 125 g ai/ha, scale 0-100): 70 | Plant response rating, Dallisgrass ([13]; 250 g ai/ha, scale 0-100): 80 | Plant response rating, Dallisgrass ([13]; 500 g ai/ha, scale 0 to 100): 100 | Plant response rating, Prickly Sida ([14]; 62 g ai/ha, scale 0-100): 95 | Plant response rating, Prickly Sida ([14]; 125 g ai/ha, scale 0-100): 100 | Plant response rating, Prickly Sida ([14]; 250 g ai/ha, scale 0-100): 100 | Plant response rating, Prickly Sida ([14]; 500 g ai/ha, scale 0 to 100): 100
